The subject of this test is Plasmodium berghei. The test is described as follows: Luciferase/luciferin-expressing antifolate-resistant parasites were used to infect a culture of HepG2 cells that were pre-incubated with compounds. Infected hepatocytes emit light due to the luciferase reaction. Assay results are presented as the percent inhibition of light emission compared to control. […]. It is filed as functional. The following applies: sporozoite; for IC90: read-out: LUCIFERASE INFECTION ASSAY - IC90.

Where [1] appears, read: read-out: LUCIFERASE INFECTION ASSAY - IC50.

One may read the IC50 as the concentration that inhibits the measured activity by half. One may read the IC90 as the concentration needed for an effect of 90%.

Structures are written as SMILES.

`NC(COCc1ccccc1)c1csc(NC(=O)Nc2cccc(C(F)(F)F)c2)n1` (stereo unspecified): the IC90 is greater than 7.56 µM. Also, the IC50 (HEPG2TOX_HILL_SLOPE 2.5, HEPG2TOX_R_SQUARED 0.677, PBLUC_HILL_SLOPE 2.37, PBLUC_R_SQUARED 0.435, read-out: LUCIFERASE INFECTION ASSAY - IC50) was determined as 5.16 µM.

With `Clc1ccccc1-c1nc2ccnc(NCCc3ccccn3)c2[nH]1`, the IC90 is greater than 10 µM. The IC50 (HEPG2TOX_HILL_SLOPE 2.25, HEPG2TOX_R_SQUARED 0.756, PBLUC_HILL_SLOPE 1.33, PBLUC_R_SQUARED 0.656, read-out: LUCIFERASE INFECTION ASSAY - IC50) is 5.37 µM.

With `CC1CCC2(CC1)NC(=O)N(Cc1ccc(C(=O)Nc3ccccc3)cc1)C2=O` (stereo unspecified), the IC90 is greater than 10 µM. Besides, under “HEPG2TOX_HILL_SLOPE 0.925, HEPG2TOX_R_SQUARED 0.33, PBLUC_HILL_SLOPE 1.44, PBLUC_R_SQUARED 0.482, read-out: LUCIFERASE INFECTION ASSAY - IC50”, the half-inhibitory concentration (IC50) turned out to be 2.56 µM.

On to `CC(C1CC2CCC1C2)N1C(=O)C(=O)N(CC(=O)Nc2cccc(F)c2)C1=O` (stereo unspecified), for which the IC90 amounted to 3.86 µM. Also, for the setting “PBLUC_HILL_SLOPE 16.7, 2.98, PBLUC_R_SQUARED 0.617, 0.740, read-out: LUCIFERASE INFECTION ASSAY - IC50”, the IC50 was determined as 4.13 µM.

As for `COC(=O)C1=CC2C3C(=O)N(c4cc(Cl)cc(Cl)c4)C(=O)C3C1C1C(=O)N(c3cc(Cl)cc(Cl)c3)C(=O)C21` (stereo unspecified), the IC90 is greater than 5.55 µM. Besides, the IC50 (PBLUC_HILL_SLOPE 1.53, PBLUC_R_SQUARED 0.573, read-out: LUCIFERASE INFECTION ASSAY - IC50) came to 2.18 µM.

Take `CCCn1c(O)nnc1SCC(=O)NC(C)C12CC3CC(CC(C3)C1)C2` (stereo unspecified): the IC90 is greater than 10 µM. Besides, the IC50 under setting [1] is greater than 10 µM.

Consider `Fc1ccc(Nc2nccc3c2ncn3Cc2ccccc2)cc1Cl`, for which the IC90 was greater than 10 µM. Besides, the 50% inhibitory concentration (IC50) (PBLUC_HILL_SLOPE 1.48, PBLUC_R_SQUARED 0.272, read-out: LUCIFERASE INFECTION ASSAY - IC50) came out at 3.67 µM.

Turning to `Cc1ccc(C(=O)OCC(=O)c2cc(C)n(-c3cccc(C(F)(F)F)c3)c2C)cc1NC(=O)c1ccco1`, the IC90 was greater than 10 µM. Further, for the setting “FFLUC_HILL_SLOPE 14.7, FFLUC_R_SQUARED 0.458, read-out: LUCIFERASE INFECTION ASSAY - IC50”, the IC50 was greater than 10 µM.

With `C/C(=N\NC(=O)Nc1ccc(Cl)cc1)c1ccc2c(c1)OCCO2`, the IC90 came out at 9.81 µM. Further, the IC50 (HEPG2TOX_HILL_SLOPE 11.1, 2.08, HEPG2TOX_R_SQUARED 0.732, 0.913, PBLUC_HILL_SLOPE 3.29, PBLUC_R_SQUARED 0.645, read-out: LUCIFERASE INFECTION ASSAY - IC50) stood at 5.03 µM.

For the molecule `O=S(=O)(c1ccc(C(F)(F)F)cn1)c1cccs1`, the IC90 was greater than 11.3 µM. The IC50 (PBLUC_HILL_SLOPE 0.531, PBLUC_R_SQUARED 0.132, read-out: LUCIFERASE INFECTION ASSAY - IC50) is greater than 11.3 µM.

Regarding `COc1ccc(OCCN2CCN(CC(=O)Nc3nc(-c4c[nH]c5ccccc45)cs3)CC2)cc1`, the IC90 was found to be 9.98 µM. For the same molecule, the IC50 (FFLUC_HILL_SLOPE 11.8, FFLUC_R_SQUARED 0.598, PBLUC_HILL_SLOPE 24.3, PBLUC_R_SQUARED 0.264, read-out: LUCIFERASE INFECTION ASSAY - IC50) came to 9.11 µM.

Turning to `CCN(Cc1ccccc1)S(=O)(=O)c1cc(C(=O)N2CCc3ccccc3C2)ccc1OC`, the IC90 is greater than 10 µM. In addition, for the setting “PBLUC_HILL_SLOPE 15.3, PBLUC_R_SQUARED 0.425, read-out: LUCIFERASE INFECTION ASSAY - IC50”, the IC50 is 9.68 µM.

Consider `O=C(Nc1cccc(-c2nc(-c3cccc(F)c3)cs2)c1)C1CC1`, for which the IC90 is greater than 10 µM. For the same molecule, the IC50 (PBLUC_HILL_SLOPE 2.07, PBLUC_R_SQUARED 0.228, read-out: LUCIFERASE INFECTION ASSAY - IC50) came to 5.44 µM.

Turning to `Cc1cc(C)nc(-n2nc(C)cc2Nc2ccccc2)n1`, the IC90 is greater than 10 µM. Moreover, for the setting “PBLUC_HILL_SLOPE 12.8, PBLUC_R_SQUARED 0.114, read-out: LUCIFERASE INFECTION ASSAY - IC50”, the IC50 was greater than 10 µM.

For `CCOC(=O)c1c(S(N)(=O)=O)c(C)n(-c2ccccc2)c1C`, the IC90 is greater than 10.2 µM. The IC50 under setting [1] is greater than 10.2 µM.

Regarding `CC(=O)Nc1cccc(-c2cnc3ccc(-c4ccc(S(C)(=O)=O)cc4)nn23)c1`, the IC90 stood at 9.62 µM. Under “HEPG2TOX_HILL_SLOPE 0.982, HEPG2TOX_R_SQUARED 0.906, PBLUC_HILL_SLOPE 3.7, PBLUC_R_SQUARED 0.22, read-out: LUCIFERASE INFECTION ASSAY - IC50”, the IC50 is 5.31 µM.

For `CCCNC(=O)C1CN(C(=O)c2oc3ccccc3c2COc2ccccc2)c2ccccc2O1` (stereo unspecified), the IC90 is greater than 10 µM. Where the note is “PBLUC_HILL_SLOPE 3.71, PBLUC_R_SQUARED 0.44, read-out: LUCIFERASE INFECTION ASSAY - IC50”, the IC50 was 6.61 µM.

Turning to `O=C(Nc1ccc(SC(F)(F)F)cc1)Nc1ccc(Sc2ccc(Cl)cc2)nc1`, the IC90 was determined as 5.24 µM. Besides, under “HEPG2TOX_HILL_SLOPE 3.12, HEPG2TOX_R_SQUARED 0.943, PBLUC_HILL_SLOPE 7.91, PBLUC_R_SQUARED 0.378, read-out: LUCIFERASE INFECTION ASSAY - IC50”, the IC50 came to 3.97 µM.

As for `Cc1cc(-c2ccc(Cl)cc2)nc2c1c(C)nn2CCO`, the IC90 was greater than 10 µM. In addition, the IC50 under setting [1] is 4.08 µM.

Regarding `FC(F)(F)c1cc(Nc2ncc(-c3ccc4c(c3)OCCCO4)s2)cc(C(F)(F)F)c1`, the IC90 is greater than 7.17 µM. For the same molecule, under setting [1], the IC50 was found to be 5.2 µM.

In the case of `CC(OC(=O)c1cccc(NC(=O)c2cccs2)c1)C(=O)C12CC3CC(CC(C3)C1)C2` (stereo unspecified), the IC90 is 3.57 µM. Also, the IC50 (PBLUC_HILL_SLOPE 20.8, PBLUC_R_SQUARED 0.61, read-out: LUCIFERASE INFECTION ASSAY - IC50) was 3.22 µM.

Turning to `O=C(CCc1c(-c2ccc(F)cc2)[nH]c2ccc(F)cc12)N1CCN(c2ccncc2)CC1`, the concentration for an effect of 90% (IC90) was 8.48 µM. For the same molecule, the IC50 (PBLUC_HILL_SLOPE 5.15, PBLUC_R_SQUARED 0.285, read-out: LUCIFERASE INFECTION ASSAY - IC50) amounted to 5.53 µM.

Consider `N#Cc1ccc(C(=O)Nc2nc3ccc(SC(F)F)cc3s2)cc1`, for which the IC90 is 3.39 µM. For the same molecule, the IC50 (HEPG2TOX_HILL_SLOPE 1.69, HEPG2TOX_R_SQUARED 0.978, PBLUC_HILL_SLOPE 16.3, PBLUC_R_SQUARED 0.469, read-out: LUCIFERASE INFECTION ASSAY - IC50) was 2.96 µM.

As for `CC(C)CC(NC(=O)Cc1ccsc1)C(=O)N/N=C/c1cccs1` (stereo unspecified), the 90% effect concentration (IC90) was greater than 9.08 µM. Moreover, the IC50 under setting [1] was greater than 9.08 µM.

With `CC(C)(C)c1ccccc1N1C(=O)C=CC1=O`, the IC90 is 6.59 µM. Also, the IC50 (HEPG2TOX_HILL_SLOPE 10.3, HEPG2TOX_R_SQUARED 0.72, PBLUC_HILL_SLOPE 8.87, PBLUC_R_SQUARED 0.496, read-out: LUCIFERASE INFECTION ASSAY - IC50) amounted to 5.14 µM.

Regarding `COc1cc(C#N)ccc1Oc1ccnc2cc(Cl)ccc12`, the IC90 is greater than 10 µM. The IC50 (HEPG2TOX_HILL_SLOPE 2.16, HEPG2TOX_R_SQUARED 0.625, PBLUC_HILL_SLOPE 9.16, PBLUC_R_SQUARED 0.449, read-out: LUCIFERASE INFECTION ASSAY - IC50) was 8.55 µM.

With `O=C(Nc1ccc(N2CCOCC2)cc1)c1cccc(-c2nn[nH]n2)c1`, the 90% effect concentration (IC90) is greater than 10 µM. Also, under setting [1], the IC50 is greater than 10 µM.

For `COc1ccc(CCNC2CCc3c(c(C(=O)N(C)C)nn3CC3CCCCC3)C2)cc1` (stereo unspecified), the IC90 was greater than 7.52 µM. Besides, the IC50 (PBLUC_HILL_SLOPE 15.6, PBLUC_R_SQUARED 0.553, read-out: LUCIFERASE INFECTION ASSAY - IC50) was determined as 7.33 µM.

Consider `CC1(C)CC(N2CCN(C(c3ccccc3)c3ccccc3)CC2)=CC(=[N+]2CCCCC2)C1`, for which the IC90 turned out to be 1.67 µM. Also, the IC50 (HEPG2TOX_HILL_SLOPE 2.29, HEPG2TOX_R_SQUARED 0.813, PBLUC_HILL_SLOPE 10.9, PBLUC_R_SQUARED 0.679, read-out: LUCIFERASE INFECTION ASSAY - IC50) was 1.36 µM.

As to `Cc1ccc(C(=O)NCCSc2ccc(Cl)cc2)o1`, the IC90 is greater than 10 µM. Further, the IC50 under setting [1] is greater than 10 µM.

For the molecule `O=C(Nc1ccncc1)c1cc(Br)c(Br)s1`, the IC90 is greater than 10 µM. Under “PBLUC_HILL_SLOPE 0.742, PBLUC_R_SQUARED 0.564, read-out: LUCIFERASE INFECTION ASSAY - IC50”, the IC50 is 4.29 µM.

`O=c1cc(N2CCN(CCOc3ccccc3Cl)CC2)nc2ccccn12`: the IC90 was greater than 10 µM. Also, the half-maximal inhibitory concentration (IC50) under setting [1] was greater than 10 µM.

Consider `CC(C)Nc1cc(C(=O)Nc2ccccc2)ncn1`, for which the 90% effect concentration (IC90) was greater than 12.9 µM. For the same molecule, the IC50 (FFLUC_HILL_SLOPE 1.2, FFLUC_R_SQUARED 0.891, PBLUC_HILL_SLOPE 0.483, PBLUC_R_SQUARED 0.815, read-out: LUCIFERASE INFECTION ASSAY - IC50) turned out to be 0.196 µM.

As to `COc1ccc(S(=O)(=O)N2CCN(CC(=O)N3CCCCCC3)CC2)cc1`, the concentration for an effect of 90% (IC90) is greater than 10 µM. In addition, under setting [1], the concentration for half-maximal inhibition (IC50) is greater than 10 µM.

For the molecule `O=C(Nc1cccc(Cl)c1)C1CCN(c2ccc(C(F)(F)F)cn2)CC1`, the IC90 was greater than 8.6 µM. Further, for the setting “FFLUC_HILL_SLOPE 11.3, FFLUC_R_SQUARED 0.5, read-out: LUCIFERASE INFECTION ASSAY - IC50”, the IC50 was greater than 8.6 µM.

As to `Cc1ccc(NC(=O)N2[C@@H]3CC[C@@H](C3)[C@H]2c2nc3cccc(OCc4ccccc4)c3[nH]2)cc1`, the 90% effect concentration (IC90) was greater than 10 µM. In addition, the half-inhibitory concentration (IC50) under setting [1] is greater than 10 µM.

For `O=C(O)Cc1csc(-c2cc(Br)cs2)n1`, the 90% effect concentration (IC90) was greater than 10 µM. The IC50 under setting [1] is greater than 10 µM.

With `O=C(NNC(=O)c1csnn1)c1ccc(C(F)(F)F)cc1`, the IC90 is 1.19 µM. Also, the IC50 (PBLUC_HILL_SLOPE 3.95, PBLUC_R_SQUARED 0.658, read-out: LUCIFERASE INFECTION ASSAY - IC50) came to 0.684 µM.
